Measurements taken from patent US20070026408A1, “Materials and methods for analysis of atp-binding cassette transporter gene expression” (priority 2003, published 2007).
Counter-ions that a name gives are not always drawn.

Test system: abcB11
Assay: DT1 microarray drug screening, drug-treated HepG2: abcB11
Format: cell-based, human
Details: HepG2, vinblastine sulfate 25 nM, 8 h, standard 24
Method: The labelled cDNA target preparation was thawed and the 150 μl added to 850 ul hybridisation buffer (500 mM sodium Phosphate pH 6.0, 1% SDS, 1% BSA, 1 mM EDTA) in a 1.5 ml microtube and heated at 95° C. for 10 min.

CC[C@]1(O)C[C@@H]2CN(CCc3c([nH]c4ccccc34)[C@@](C(=O)OC)(c3cc4c(cc3OC)N(C)[C@H]3[C@@](O)(C(=O)OC)[C@H](OC(C)=O)[C@]5(CC)C=CCN6CC[C@]43[C@@H]65)C2)C1 [vin, vinblastine sulfate]
relative level of abcB11 gene expression: 9.053
